According to patent US12653832B2, “Methods for treating lung infections and inflammation” (BRIGHAM YOUNG UNIVERSITY, priority 2013, dated 2026):
In brackets after ≈: the same amount, converted by molar mass.

Experiments:
[1] = test system: P. aeruginosa (PAO1); test: Animal model of lung infection, bacterial counts in lung tissue; format: in vivo, mice; details: for elimination of the bacterial burden: 80 mg/kg via nebulization; for reduction in bacterial burden: 80 mg/kg via nebulization four hours after infection
Method: In vivo studies were designed to allow observation of both tolerance for CSAs and effectiveness of the antimicrobial in reducing bacterial burden. An infection model was used in which mice were inoculated with P. aeruginosa (PAO1) intra-nasally (10^5 CFU) to establish an infection. […] Two doses were used: 40 and 80 mg/kg. […] After 24 h, the mice were euthanized, and lung tissues were homogenized. Bacterial counts were determined by serial dilution, plating on nutrient agar, incubation, and colony counting. As a comparator, tobramycin was administered via the same route, and P. aeruginosa counts were determined.
(§1) IL-6 was measured from kidney tissue specimens.

[2] = test system: tobramycin-resistant P. aeruginosa strains; test: MIC against tobramycin resistant strains (cross-resistance); format: cell-based; details: seven tobramycin resistant P. aeruginosa strains (FIG. 3)
Description: Tobramycin is commonly used in reducing the bacterial burden in the lungs of cystic fibrosis patients. However, resistance to tobramycin is often observed among P. aeruginosa isolates. Tobramycin resistance is typically achieved by acylation or phosphorylation of the primary amine groups in the antibiotic.
Similar studies can be conducted for other drug-resistant pathogenic strains following this standard experimental protocol.

[3] = test system: P. aeruginosa; test: Drug combinations of CSAs and anti-pathogenic substances (synergy); format: cell-based
Method: Following the protocols outlined in Appl. Microbiol. Biotechnol., 2010 (September) pp. 251-63 and Chemotherapy, 2011 (November), Vol. 57, pp. 505-10, drug combinations involving CSAs and anti-pathogenic substances are performed.

[4] = test system: inflammatory cells around bronchioles in lungs; test: Murine lung histology in pneumonia model; format: in vivo, mice; details: 4 hours post challenge with Pseudomonas PA01
Method: In this experiment, mice were infected with 10^8 PA01 strain of Pseudomonas, representing a murine pneumonia model. […] The CSA treatment was administered 4 hours post challenge with Pseudomonas.

[5] = test system: P. aeruginosa (PAO1); test: MIC against infection-model strain; format: cell-based
[6] = test system: IL-6; test: IL-6 levels in murine pneumonia model; format: in vivo, mice; details: inhaled, 40 and 80 mg/kg; IL-6 measured from kidney tissue specimens (FIG. 5)
Method: as §1

[7] = test system: Staphylococcus aureus; test: Assessment of bacterial resistance by serial exposure, MIC; format: cell-based; details: after 30 serial passages
Description: (§2) A central consideration in the development of novel antimicrobials is potential generation of bacterial resistance. […] See Pollard J E, et al. J. Antimicrob. Chemother. 2012, 67, 2665-2672 (describing experimental protocol).

[8] = test system: Pseudomonas aeruginosa; test: as above; format: cell-based; details: serial passages (FIG. 2)
Description: as §2

SMILES | elimination of the bacterial burden [1] [%] | reduction in bacterial burden ([1]; lung counts after 24 h) | susceptibility of tobramycin resistant strains [2] | reduction of the MIC of erythromycin ([3]; CSA-13 administered with erythromycin) [%] | inflammatory cells in lung histology ([4]; 40 mg/kg dose) | inflammatory cells in lung histology ([4]; 80 mg/kg dose) | drop in bacterial counts ([1]; 40 mg/kg via nebulization four hours after infection, lung counts after 24 h) | Pseudomonas load ([1]; inhaled, 40 and 80 mg/kg, murine pneumonia model (FIG. 5)) | synergy ([3]; combined with ciprofloxaxin) | synergy ([3]; combined with tobramycin) | synergistic result ([3]; in combination with colistin, against P. aeruginosa) [%] | MIC [5] [µg/mL] | IL-6 levels [6] | change in Minimum Inhibitory Concentration (MIC) [7] | MIC at which the rise appeared to level off [8] [µg/mL]
NC[C@H]1O[C@H](O[C@H]2[C@H](O)[C@@H](O[C@H]3O[C@H](CO)[C@@H](O)[C@H](N)[C@H]3O)[C@H](N)C[C@@H]2N)[C@H](N)C[C@@H]1O [tobramycin, reference compound] | 99.99 | greater than four | varied significantly | – | – | – | – | – | – | – | – | – | – | – | –
CC[C@H]1OC(=O)[C@H](C)[C@@H](O[C@H]2C[C@@](C)(OC)[C@@H](O)[C@H](C)O2)[C@H](C)[C@@H](O[C@@H]2O[C@H](C)C[C@H](N(C)C)[C@H]2O)[C@](C)(O)C[C@@H](C)C(=O)[C@H](C)[C@@H](O)[C@]1(C)O [erythromycin, reference compound] | – | – | – | 92 | – | – | – | – | – | – | – | – | – | – | –
CCCCCCCCNCCC[C@@H](C)[C@H]1CC[C@H]2[C@@H]3[C@H](OCCCN)C[C@@H]4C[C@H](OCCCN)CC[C@]4(C)[C@H]3C[C@H](OCCCN)[C@]12C [CSA-13] | 99.99 | greater than four | all strains were comparably susceptible | – | substantial reduction of inflammatory cells | even greater reduction in inflammatory cells | two | reduced | Additional synergies were observed | Additional synergies were observed | 54 | 2.5 (≈ 3.69 µM) | reduced | no significant change | ~20 (≈ 29.5 µM)
